The test has as its system P388 leukemia ip, CD2F1 mice, survival T/C. Description: NCI In Vivo Anticancer Drug Screen. Data for tumor model P388 Leukemia (intraperitoneal) in CD2F1 (CDF1) mice. Particulars: endpoint: median survival time, higher = longer survival. In a few lines:
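Mice carrying the transplanted tumor received test compound or vehicle. Survival was recorded in each group, and the value is the treated-group measurement divided by that of the vehicle-treated control group.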

[1] abbreviates: dose: 12.5 mg/kg/injection, schedule: Q01DX005 (ip), vehicle: Klucel (hydroxypropylcellulose) (HPC).
[2] abbreviates: dose: 25.0 mg/kg/injection, schedule: Q01DX005 (ip), vehicle: Klucel (hydroxypropylcellulose) (HPC).
Where [3] appears, read: dose: 50.0 mg/kg/injection, schedule: Q01DX005 (ip), vehicle: Klucel (hydroxypropylcellulose) (HPC).
The mark [4] stands for this setting: dose: 100.0 mg/kg/injection, schedule: Q01DX005 (ip), vehicle: Klucel (hydroxypropylcellulose) (HPC).
Setting [5] is: dose: 50.0 mg/kg/injection, schedule: Q01DX009 (ip), vehicle: saline with Tween-80.
[6] abbreviates: dose: 100.0 mg/kg/injection, schedule: Q01DX009 (ip), vehicle: saline with Tween-80.
The mark [7] stands for this setting: dose: 200.0 mg/kg/injection, schedule: Q01DX009 (ip), vehicle: saline with Tween-80.
Setting [8] is: dose: 100.0 mg/kg/injection, schedule: Q04DX003 (ip), vehicle: saline with Tween-80.
Where [9] appears, read: dose: 200.0 mg/kg/injection, schedule: Q04DX003 (ip), vehicle: saline with Tween-80.
Setting [10] is: dose: 100.0 mg/kg/injection, schedule: Q04DX003 (ip), vehicle: saline.
[11] abbreviates: dose: 25.0 mg/kg/injection, schedule: Q01DX009 (ip), vehicle: saline with Tween-80.

In PubChem BioAssay AID330 (DTP/NCI, 2004) one finds T/C data, which are given here for 21 molecules.

Values joined by “and” are separate entries in the source; they are usually repeats but may differ in a detail not shown here. Identical values can stand only once. Inconclusive results and toxic doses are left out.

Turning to `CC(=O)Nc1ccc(Cl)cc1C(Cl)c1ccccc1` (configuration not stated), the T/C was 109 % of control under setting [1]; 118 % of control under setting [2]; 123 % of control and 124 % of control under setting [3]; 115 % of control under setting [4].
As for `CNC(=O)C(C(=O)NC)c1ccccc1`, the T/C by setting is: (dose: 100.0 mg/kg/injection, schedule: Q04DX003 (ip), vehicle: Klucel (hydroxypropylcellulose) (HPC)) 95 % of control; (dose: 200.0 mg/kg/injection, schedule: Q04DX003 (ip), vehicle: Klucel (hydroxypropylcellulose) (HPC)) 95 % of control; (dose: 400.0 mg/kg/injection, schedule: Q04DX003 (ip), vehicle: Klucel (hydroxypropylcellulose) (HPC)) 96 % of control.
As to `O=C(Nc1c(Cl)cccc1Cl)OCc1ccc2c(c1)OCO2`, the T/C is, setting by setting: (dose: 60.0 mg/kg/injection, schedule: Q01DX005 (ip), vehicle: Klucel (hydroxypropylcellulose) (HPC)) 92 % of control; (dose: 120.0 mg/kg/injection, schedule: Q01DX005 (ip), vehicle: Klucel (hydroxypropylcellulose) (HPC)) 90 % of control; (dose: 240.0 mg/kg/injection, schedule: Q01DX005 (ip), vehicle: Klucel (hydroxypropylcellulose) (HPC)) 90 % of control.
For the molecule `N#C/C(=C1C=C/C(=N/O)C=C/1Cl)c1ccccc1`, the T/C runs as follows: under setting [5], 95 % of control; under setting [6], 93 % of control; under setting [7], 94 % of control; (dose: 400.0 mg/kg/injection, schedule: Q01DX009 (ip), vehicle: saline with Tween-80) 94 % of control.
Take `CCOC(C[Se]c1ccccc1)OCC(F)(F)F` (configuration not stated): the T/C (dose: 50.0 mg/kg/injection, schedule: Q04DX003 (ip), vehicle: saline with Tween-80) is 90 % of control; the T/C under setting [8] is 102 % of control; the T/C under setting [9] is 111 % of control.
As for `CC(/C=N\Nc1ccc(C(=O)O)cc1)=N/N=C(N)N`, the T/C was 99 % of control under setting [10]; 98 % of control (dose: 200.0 mg/kg/injection, schedule: Q04DX003 (ip), vehicle: saline); 100 % of control (dose: 400.0 mg/kg/injection, schedule: Q04DX003 (ip), vehicle: saline).
Consider `CCCCCCCCCCCC[N+]1(CC)CCOCC1`, for which the T/C reads like this: (dose: 3.12 mg/kg/injection, schedule: Q01DX009 (ip), vehicle: saline) 106 % of control; (dose: 6.25 mg/kg/injection, schedule: Q01DX009 (ip), vehicle: saline) 101 % of control; (dose: 12.5 mg/kg/injection, schedule: Q01DX009 (ip), vehicle: saline) 101 % of control.
For the molecule `COC(=O)C1CSC(c2c(COP(=O)(O)O)cnc(C)c2O)N1` (configuration not stated), the T/C by setting is: (dose: 100.0 mg/kg/injection, schedule: Q01DX001 (ip), vehicle: saline) 103 % of control; (dose: 200.0 mg/kg/injection, schedule: Q01DX001 (ip), vehicle: saline) 105 % of control; (dose: 400.0 mg/kg/injection, schedule: Q01DX001 (ip), vehicle: saline) 96 % of control.
`O=CC(O)C(O)C(O)COc1cc(CO)cc2c1C(=O)c1ccccc1C2=O` (configuration not stated): the T/C reads like this: under setting [1], 100 % of control; under setting [2], 107 % of control; under setting [3], 106 % of control and 110 % of control; under setting [4], 106 % of control and 107 % of control.
On to `N=c1c2ccn(C3OC(CO)C(O)C3O)c2ncn1N` (configuration not stated), for which the T/C was 117 % of control (dose: 6.25 mg/kg/injection, schedule: Q01DX009 (ip), vehicle: water) and 121 % of control (dose: 50.0 mg/kg/injection, schedule: Q01DX009 (ip), vehicle: water).
Consider `CCOC(=O)CCC(NC(=O)N(CCCl)CCCl)C(=O)OCC` (configuration not stated), for which the T/C under setting [5] is 154 % of control; the T/C under setting [6] is 168 % of control; the T/C under setting [8] was 113 % of control; the T/C (dose: 132.0 mg/kg/injection, schedule: Q04DX003 (ip), vehicle: saline with Tween-80) was 168 % of control; the T/C under setting [7] is 181 % of control; the T/C under setting [9] is 150 % of control and 172 % of control. Also, the T/C (dose: 300.0 mg/kg/injection, schedule: Q04DX003 (ip), vehicle: saline with Tween-80) is 195 % of control.
With `C(=N\N1CCCCCC1)/c1ccc2c(c1)OCO2`, the T/C was 90 % of control under setting [11], 95 % of control under setting [5] and 90 % of control under setting [6].
With `C1=CC2(C=CCC1)OCCO2`, the T/C (dose: 50.0 mg/kg/injection, schedule: Q01DX005 (ip), vehicle: saline with Tween-80) was 121 % of control.
Take `CC(C)CC(NC(=O)c1cccnc1)C(=O)O` (configuration not stated): the T/C was 104 % of control under setting [3]; 99 % of control under setting [4]; 93 % of control (dose: 200.0 mg/kg/injection, schedule: Q01DX005 (ip), vehicle: Klucel (hydroxypropylcellulose) (HPC)).
As for `C=C1C(=O)O[C@@H]2C[C@@]3(C)CCC[C@H](C)C3=C[C@H]12`, the T/C was 94 % of control under setting [11], 98 % of control under setting [5], 100 % of control under setting [6] and 100 % of control under setting [7].
Regarding `O=c1[nH]c(=O)n(C2OC(CO)C(O)C2O)cc1F` (configuration not stated), the T/C reads like this: (dose: 0.62 mg/kg/injection, schedule: Q01DX009 (ip), vehicle: saline) 179 % of control; (dose: 0.79 mg/kg/injection, schedule: Q01DX009 (ip), vehicle: saline) 157 % of control; (dose: 1.0 mg/kg/injection, schedule: Q01DX005 (ip), vehicle: saline) 158 % of control; (dose: 1.57 mg/kg/injection, schedule: Q01DX009 (ip), vehicle: saline) 169 % of control; (dose: 2.0 mg/kg/injection, schedule: Q01DX005 (ip), vehicle: saline) 172 % of control; (dose: 2.5 mg/kg/injection, schedule: Q01DX009 (ip), vehicle: saline) 176 % of control and 205 % of control. Further, the T/C runs as follows: (dose: 3.89 mg/kg/injection, schedule: Q04DX003 (ip), vehicle: saline) 157 % of control; (dose: 4.0 mg/kg/injection, schedule: Q01DX005 (ip), vehicle: saline) 185 % of control; (dose: 5.0 mg/kg/injection, schedule: Q01DX009 (ip), vehicle: saline) 189 % of control; (dose: 6.48 mg/kg/injection, schedule: Q04DX002 (ip), vehicle: saline) 150 % of control; (dose: 6.48 mg/kg/injection, schedule: Q04DX003 (ip), vehicle: saline) 159 % of control; (dose: 10.8 mg/kg/injection, schedule: Q04DX002 (ip), vehicle: saline) 160 % of control. Further, the T/C reads like this: (dose: 10.8 mg/kg/injection, schedule: Q04DX003 (ip), vehicle: saline) 175 % of control; (dose: 18.0 mg/kg/injection, schedule: Q04DX003 (ip), vehicle: saline) 186 % of control.
As for `N=C(N)c1ccc2oc(/C=C/C=C/C=C/c3cc4cc(C(=N)N)ccc4o3)cc2c1`, under setting [10], the T/C was 124 % of control.
Take `C(=C1SCCCS1)c1cc2c(cc1OCc1ccccc1)OCO2`: the T/C was 100 % of control (dose: 100.0 mg/kg/injection, schedule: Q01DX001 (ip), vehicle: Klucel (hydroxypropylcellulose) (HPC)); 105 % of control (dose: 200.0 mg/kg/injection, schedule: Q01DX001 (ip), vehicle: Klucel (hydroxypropylcellulose) (HPC)); 102 % of control (dose: 400.0 mg/kg/injection, schedule: Q01DX001 (ip), vehicle: Klucel (hydroxypropylcellulose) (HPC)).
For the molecule `CCN(CC)CCOC(=O)c1cc2cc3cc(C(=O)OCCN(CC)CC)c(=O)oc3c(C)c2oc1=O`, the T/C runs as follows: (dose: 50.0 mg/kg/injection, schedule: Q01DX005 (ip), vehicle: saline) 113 % of control; (dose: 100.0 mg/kg/injection, schedule: Q01DX005 (ip), vehicle: saline) 114 % of control; (dose: 200.0 mg/kg/injection, schedule: Q01DX005 (ip), vehicle: saline) 107 % of control.
For `CN(C)Cc1cocc(CN(C)C)c1=O`, the T/C is 100 % of control (dose: 50.0 mg/kg/injection, schedule: Q01DX009 (ip), vehicle: saline); 98 % of control (dose: 100.0 mg/kg/injection, schedule: Q01DX009 (ip), vehicle: saline); 103 % of control (dose: 200.0 mg/kg/injection, schedule: Q01DX009 (ip), vehicle: saline).
Regarding `CCn1c2ccccc2c2cc(N)c(N=Nc3ccc(N(C)C)cc3)cc21`, the T/C (dose: 50.0 mg/kg/injection, schedule: Q01DX009 (ip), vehicle: Klucel (hydroxypropylcellulose) (HPC)) is 113 % of control; the T/C (dose: 100.0 mg/kg/injection, schedule: Q01DX009 (ip), vehicle: Klucel (hydroxypropylcellulose) (HPC)) is 105 % of control; the T/C (dose: 200.0 mg/kg/injection, schedule: Q01DX009 (ip), vehicle: Klucel (hydroxypropylcellulose) (HPC)) was 103 % of control.
